A short description of experiment [1]: Displacement of [3H]PCP from nAChR in Apis mellifera (honeybee0 head homogenates. It is filed as tissue-based. On the technique in general: Displacement assays read how much labelled ligand stays bound in the presence of the test substance.
Experiment [2] in a line: Displacement of [3H]alpha-BGT from nAChR in Apis mellifera (honeybee) head homogenates. It is filed as tissue-based.
A further experiment relates to Apis mellifera. The experiment in a line: Displacement of [3H]PCP from nAChR in Apis mellifera (honeybee) head homogenates at 1000 uM. It is filed as tissue-based.
The subject of experiment [3] is Musca domestica. The experiment in a line: Insecticidal activity against 3 to 5 day old female Musca domestica (house fly) assessed as compound level causing insect mortality per female applied through intrathoracic injection measured after 24 hr. It is filed as functional.
The test system of experiment [4] is Musca domestica. The experiment can be described thus: Insecticidal activity against 3 to 5 day old female Musca domestica (house fly) assessed as induction of convulsions and paralysis applied through intrathoracic injection measured after 24 hr. It is filed as functional, organism-based.
In experiment [5] the test system is Musca domestica. The experiment can be described thus: Insecticidal activity against 3 to 5 day old female Musca domestica (house fly) assessed as induction of anesthetic effect applied topically on notum measured after 24 hr. It counts as functional, organism-based.
In experiment [6] the test system is Musca domestica. The experiment can be described thus: Insecticidal activity against 3 to 5 day old female Musca domestica (house fly) assessed as compound level causing insect mortality per female applied topically on notum measured after 24 hr. It counts as functional.
In experiment [7] the test system is Musca domestica. The experiment can be described thus: Insecticidal activity against 3 to 5 day old female Musca domestica (house fly) assessed as induction of leg tremors at >2 ug/female fly applied topically on notum measured after 24 hr. It is filed as functional, organism-based.

Calls of active or inactive are those of the source. The rule behind the calls is not given here.

The term IC50 denotes the concentration that inhibits the measured activity by half. Low readings indicate greater potency in that assay, high ones weaker potency in that assay. Turning to `CCC[C@H]1CCCCN1` [CONIINE], the IC50 in experiment [1] stood at 5.56 µM; in experiment [2], 166 µM.

Take `CN(C)CCCN1c2ccccc2Sc2ccc(Cl)cc21` [CHLORPROMAZINE]: the IC50 in experiment [1] came to 5.8 µM; in experiment [2], 151 µM.

Turning to `O=[N+]([O-])C=C1NCCCS1`, the values for the IC50 in experiment [1] and in experiment [2] were 231 µM and 1360 µM, respectively.

For orientation: inhibition means the relative decrease from the control value, in per cent. Read a low inhibition as little suppression. For `O=c1cccc2n1C[C@@H]1CNC[C@H]2C1` [CYTISINICLINE], the IC50 is greater than 1000 µM in experiment [1] and 0.267 µM in experiment [2]. Further, the inhibition with Apis mellifera is 12.6%.

`COc1cc2c3cc1Oc1cc(ccc1O)C[C@@H]1c4c(cc(OC)c(O)c4Oc4ccc(cc4)C[C@@H]3N(C)CC2)CC[N+]1(C)C`: the IC50 in experiment [1] is 0.636 µM; in experiment [2], 3.35 µM.

Take `CCN(Cc1ccc(Cl)nc1)/C(=C/[N+](=O)[O-])NC` [NITENPYRAM]: the IC50 in experiment [1] amounted to 27.6 µM; in experiment [2], 61.3 µM.

On to `C[N+](C)(C)CCOC(N)=O` [CARBACHOL], for which the values for the IC50 in experiment [1] and in experiment [2] were greater than 1000 µM and 90.1 µM, respectively. In the experiment with Apis mellifera, this compound came in with an inhibition of 8.1%.

On to `C/C(=N\C#N)N(C)Cc1ccc(Cl)nc1` [ACETAMIPRID], for which the IC50 in experiment [1] is 277 µM; in experiment [2], 8.83 µM.

As to `C[N+]1(C)CCN(c2ccccc2)CC1` [DIMETHYLPHENYLPIPERAZINIUM IODIDE], the values for the half-maximal inhibitory concentration (IC50) in experiment [1] and in experiment [2] were 385 µM and 7.35 µM, respectively.

Turning to `O=C1N(Cc2ccccc2)C2C[S+]3CCCC3C2N1Cc1ccccc1` (stereo unspecified) [TRIMETHAPHAN CAMSYLATE], the IC50 was determined as 440 µM in experiment [1] and 0.798 µM in experiment [2].

Take `CN1[C@@H](CC(=O)c2ccccc2)CCC[C@H]1C[C@H](O)c1ccccc1` [LOBELINE]: the IC50 in experiment [1] worked out at 158 µM; in experiment [2] it was 4.6 µM.

Take `O=[N+]([O-])/N=C1\NCCN1Cc1ccc(Cl)nc1` [IMIDACLOPRID]: the IC50 is 386 µM in experiment [1] and 1.95 µM in experiment [2]. Also, in the experiment on Musca domestica [3], the LD50 stood at 0.553 µg. The outcome in the experiment on Musca domestica [4] was Active.

With `CN1CCC[C@@H]1c1cccnc1` [R-NICOTINE], the 50% inhibitory concentration (IC50) was determined as 35 µM in experiment [1] and 22.1 µM in experiment [2].

With `c1ccc(C2(N3CCCCC3)CCCCC2)cc1` [PHENCYCLIDINE], in the experiment with Musca domestica [5], the result was Active. Also, the LD50 with Musca domestica [6] was found to be 18.4 µg. The IC50 amounted to 0.029 µM in experiment [1] and 2.55 µM in experiment [2].

`CSC(C)N1CCN/C1=C\[N+](=O)[O-]` (stereo unspecified): the IC50 stood at 336 µM in experiment [1] and 249 µM in experiment [2].

For `c1cncc(C2CCCCN2)c1` (stereo not drawn) [DL-ANABASINE], the IC50 in experiment [1] came out at 4.99 µM; in experiment [2], 1.98 µM.

As for `CN1CCC[C@H]1c1cccnc1` [NICOTINE], the LD50 with Musca domestica [6] came out at 14.8 µg. The IC50 stood at 1.14 µM in experiment [1] and 1.55 µM in experiment [2].

As for `CN(C)C1CSSC1` [NEREISTOXIN], the result with Musca domestica [5] and in the experiment on Musca domestica [7] was Active. For the same compound, in the experiment on Musca domestica [6], the LD50 came to 0.49 µg. Besides, the IC50 in experiment [1] came out at 30.7 µM; in experiment [2], 228 µM.

As for `c1csc(C2(N3CCCCC3)CCCCC2)c1` [TENOCYCLIDINE], the outcome in the experiment with Musca domestica [5] was Active. Also, the LD50 in the experiment on Musca domestica [6] worked out at 25 µg. Also, the IC50 in experiment [1] was 0.082 µM; in experiment [2] it was 1.38 µM.

As for `O=[N+]([O-])/C=C1\NCCN1Cc1ccc(Cl)nc1`, the values for the IC50 in experiment [1] and in experiment [2] were 953 µM and 0.026 µM, respectively.

`CNC1(C)C2CCC(C2)C1(C)C` (stereo unspecified) [MECAMYLAMINE]: the IC50 in experiment [1] worked out at 8.98 µM; in experiment [2], 346 µM.

As for `CNC1(c2ccccc2Cl)CCCCC1=O` (stereo unspecified) [KETAMINE], the figures for the IC50 in experiment [1] and in experiment [2] were 83.2 µM and 237 µM, respectively.

(Values after ChEMBL document CHEMBL3045508, “Pharmacological Characteristics of Insect Nicotinic Acetyicholine Receptor with Its Ion Channel and the Comparison of the Effect of Nicotinoids and Neonicotinoids” (J Pestic Sci, 1995).)
